Laboratory results taken from patent US7195769B2, “Pharmaceutical compositions of anti-tubercular drugs and process for their preparation” (Panacea Biotec Limited, priority 2000, dated 2007).

Experiment: pH dependence of rifampicin degradation in presence of isoniazid
Assay type: physicochemical
Source text: Thereafter, above pH 3 the degradation is minimal.

Compound: CO[C@H]1/C=C/O[C@@]2(C)Oc3c(C)c(O)c4c(O)c(c(/C=N/N5CCN(C)CC5)c(O)c4c3C2=O)NC(=O)/C(C)=C\C=C\[C@H](C)[C@H](O)[C@@H](C)[C@@H](O)[C@@H](C)[C@H](OC(C)=O)[C@@H]1C [rifampicin]
- degradation of rifampicin in presence of isoniazid (above pH 3): minimal
- degradation of rifampicin in presence of isoniazid (pH around 1): minimum
- degradation of rifampicin in presence of isoniazid (pH between 2 and 3): increases abruptly
